Legend:
Test in all cases: relative viability (nuclei count vs DMSO), 5 days (fraction); higher = more cells survive
[1] = compound: C/C(=N\NC(=S)N1CCC1)/C2=CC=CC=N2 + CCNC(=O)c1noc(-c2cc(C(C)C)c(O)cc2O)c1-c1ccc(CN2CCOCC2)cc1 [Luminespib] (partner 0.01 µM)
In short: (§1)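 Cells from lung cancer lines were seeded into 1536-well plates and, one day later, dosed by pin tool. Treatments were either a single drug or a fixed dose of an anchor drug with five library-drug doses (not always all listed) in √10 steps. After 5 days, nuclei were stained in a one-step fixation (final 0.05% Triton X-100, 1% formaldehyde, 1 ug/ml Hoechst) and counted on 4× images, and relative viability is the treated-to-vehicle nuclei ratio, as the median of duplicate plates.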

[2] = compound: C/C(=N\NC(=S)N1CCC1)/C2=CC=CC=N2 + Cc1nc(Nc2ncc(C(=O)Nc3c(C)cccc3Cl)s2)cc(N2CCN(CCO)CC2)n1 [Dasatinib] (partner 0.075 µM)
In short: as §1

[3] = compound: C/C(=N\NC(=S)N1CCC1)/C2=CC=CC=N2 + Cc1cc(Nc2cc(N3CCN(C)CC3)nc(Sc3ccc(NC(=O)C4CC4)cc3)n2)n[nH]1 [Tozasertib] (partner 0.1 µM)
In short: as §1

[4] = compound: C/C(=N\NC(=S)N1CCC1)/C2=CC=CC=N2 + Cc1nc(NC(=O)N2CCC[C@H]2C(N)=O)sc1-c1ccnc(C(C)(C)C(F)(F)F)c1 [Alpelisib] (partner 2 µM)
In short: as §1

Cell Line	relative viability ([1]; first compound 0.05 µM)	relative viability ([1]; first compound 0.1581 µM)	relative viability ([1]; first compound 0.5 µM)	relative viability ([1]; first compound 1.581 µM)	relative viability ([1]; first compound 5 µM)	relative viability ([2]; first compound 0.05 µM)	relative viability ([2]; first compound 0.1581 µM)	relative viability ([2]; first compound 0.5 µM)	relative viability ([2]; first compound 1.581 µM)	relative viability ([2]; first compound 5 µM)	relative viability ([3]; first compound 0.05 µM)	relative viability ([3]; first compound 0.1581 µM)	relative viability ([3]; first compound 0.5 µM)	relative viability ([3]; first compound 1.581 µM)	relative viability ([3]; first compound 5 µM)	relative viability ([4]; first compound 0.05 µM)	relative viability ([4]; first compound 0.1581 µM)	relative viability ([4]; first compound 0.5 µM)	relative viability ([4]; first compound 1.581 µM)	relative viability ([4]; first compound 5 µM)
201T	0.394	0.394	0.35	0.322	0.256	0.324	0.29	0.282	0.232	0.216	0.424	0.445	0.368	0.292	0.296	0.697	0.994	0.647	0.476	0.4
A-427	0.153	0.147	0.139	0.155	0.155	0.144	0.124	0.132	0.0986	0.117	0.1	0.0846	0.12	0.077	0.102	0.136	0.739	0.142	0.101	0.11
ABC-1	0.224	0.264	0.291	0.145	0.316	0.213	0.306	0.195	0.193	0.225	0.193	0.146	0.152	0.168	0.163	0.371	0.226	0.234	0.27	0.281
BEN	0.113	0.19	0.0969	0.12	0.0243	0.142	0.187	0.177	0.171	0.153	0.334	0.354	0.336	0.352	0.397	0.195	0.194	0.266	0.232	0.198
CAL-12T	0.138	0.147	0.0989	0.105	0.112	0.0937	0.0896	0.054	0.0962	0.0819	0.128	0.12	0.131	0.107	0.113	0.148	0.146	0.126	0.127	0.121
COR-L23	0.102	0.0984	0.0928	0.0829	0.0974	0.102	0.095	0.0719	0.0707	0.0937	0.101	0.0974	0.0768	0.0695	0.101	0.113	0.123	0.097	0.0558	0.0865
COR-L 105	0.227	0.247	0.259	0.167	0.265	0.178	0.254	0.243	0.176	0.185	0.205	0.245	0.229	0.231	0.22	0.301	0.266	0.275	0.222	0.217
Calu-6	–	–	–	–	–	–	–	–	–	–	–	–	–	–	–	0.141	0.151	0.148	0.151	0.124
ChaGo-K-1	0.167	0.172	0.174	0.139	0.161	0.137	0.178	0.17	0.131	0.168	0.141	0.154	0.17	0.151	0.168	–	–	–	–	–
EKVX	0.0986	0.123	0.114	0.119	0.143	0.186	0.174	0.164	0.172	0.192	0.131	0.108	0.101	0.103	0.12	0.119	0.124	0.111	0.13	0.151
EMC-BAC-2	0.217	0.225	0.177	0.19	0.232	0.149	0.169	0.175	0.129	0.186	0.176	0.187	0.147	0.151	0.167	0.288	0.426	0.122	0.163	0.152
EPLC-272H	0.105	0.105	0.192	0.203	0.165	0.086	0.079	0.117	0.0523	0.0578	0.0738	0.0936	0.118	0.0848	0.114	0.125	0.293	0.185	0.166	0.203
H3255	0.21	0.262	0.232	0.176	0.302	0.355	0.347	0.258	0.225	0.392	0.331	0.167	0.288	0.193	0.232	0.242	0.323	0.221	0.181	0.214
HARA	0.124	0.121	0.0663	0.0648	0.0838	0.0909	0.0673	0.0699	0.063	0.083	0.0547	0.0677	0.0627	0.0539	0.0645	0.31	0.0915	0.122	0.145	0.0798
HCC-15	0.128	0.0546	0.119	0.0758	0.072	0.0569	0.0708	0.0679	0.0571	0.0669	0.0765	0.0513	0.112	0.0654	0.0641	0.191	0.453	0.0722	0.0749	0.0746
HCC-44	0.326	0.307	0.283	0.32	0.242	–	–	–	–	–	0.359	0.309	0.257	0.246	0.231	0.473	0.143	0.178	0.162	0.218
HCC-78	–	–	–	–	–	0.264	0.256	0.268	0.181	0.157	0.332	0.205	0.248	0.206	0.202	0.257	0.252	0.177	0.153	0.158
HCC-366	–	–	–	–	–	0.0305	0.0271	0.0302	0.0382	0.031	0.0183	0.0481	0.0208	0.0215	0.0265	0.0241	0.013	0.0152	0.0166	0.0137
HCC-827	0.254	0.468	0.163	0.124	0.188	0.292	0.302	0.21	0.241	0.283	0.383	0.36	0.225	0.185	0.148	0.556	1.01	0.264	0.279	0.186

Cell Line	relative viability ([1]; first compound 0.05 µM)	relative viability ([1]; first compound 0.1581 µM)	relative viability ([1]; first compound 0.5 µM)	relative viability ([1]; first compound 1.581 µM)	relative viability ([1]; first compound 5 µM)	relative viability ([2]; first compound 0.05 µM)	relative viability ([2]; first compound 0.1581 µM)	relative viability ([2]; first compound 0.5 µM)	relative viability ([2]; first compound 1.581 µM)	relative viability ([2]; first compound 5 µM)	relative viability ([3]; first compound 0.05 µM)	relative viability ([3]; first compound 0.1581 µM)	relative viability ([3]; first compound 0.5 µM)	relative viability ([3]; first compound 1.581 µM)	relative viability ([3]; first compound 5 µM)	relative viability ([4]; first compound 0.05 µM)	relative viability ([4]; first compound 0.1581 µM)	relative viability ([4]; first compound 0.5 µM)	relative viability ([4]; first compound 1.581 µM)	relative viability ([4]; first compound 5 µM)
HOP-62	0.215	0.12	0.151	0.129	0.119	0.0752	0.0748	0.0769	0.0912	0.0784	0.129	0.109	0.0803	0.104	0.0835	0.105	0.895	0.0809	0.0743	0.0607
IA-LM	–	–	–	–	–	–	–	–	–	–	–	–	–	–	–	0.0645	0.0816	0.0594	0.0596	0.0781
LC-2-ad	0.269	0.273	0.252	0.219	0.247	0.191	0.187	0.143	0.165	0.166	0.253	0.244	0.23	0.171	0.207	0.126	0.109	0.107	0.104	0.0953
LCLC-97TM1	0.415	0.623	0.109	0.136	0.151	0.163	0.161	0.143	0.0911	0.13	0.193	0.218	0.105	0.128	0.165	0.107	0.203	0.107	0.106	0.112
LCLC-103H	0.174	0.204	0.233	0.182	0.158	0.123	0.136	0.156	0.103	0.164	0.244	0.175	0.202	0.133	0.165	0.34	0.978	0.24	0.257	0.233
LK-2	0.16	0.147	0.158	0.188	0.131	0.141	0.187	0.17	0.121	0.151	0.166	0.139	0.157	0.147	0.149	0.182	0.28	0.283	0.176	0.243
LOU-NH91	0.257	0.293	0.274	0.185	0.264	0.35	0.37	0.27	0.367	0.382	0.38	0.411	0.366	0.313	0.367	0.485	0.442	0.407	0.382	0.424
LU99A	0.15	0.116	0.152	0.164	0.148	0.131	0.16	0.114	0.106	0.155	0.155	0.164	0.164	0.152	0.165	0.174	0.0993	0.112	0.142	0.135
LXF-289	0.169	0.132	0.177	0.153	0.126	0.0597	0.064	0.0627	0.0541	0.0561	0.126	0.108	0.114	0.124	0.0738	0.539	0.307	0.278	0.147	0.141
NCI-H23	0.151	0.149	0.204	0.206	0.204	0.128	0.142	0.177	0.121	0.142	0.122	0.172	0.119	0.112	0.133	0.128	0.148	0.141	0.128	0.155
NCI-H322M	0.314	0.327	0.289	0.263	0.309	0.183	0.309	0.263	0.247	0.282	0.271	0.27	0.241	0.313	0.364	0.318	0.844	0.186	0.258	0.254
NCI-H522	0.353	0.375	0.369	0.412	0.49	–	0.332	0.494	–	0.416	–	0.292	0.296	–	0.407	–	–	–	–	–
NCI-H1563	0.464	0.435	0.472	0.429	0.467	0.394	0.462	0.408	0.229	0.312	–	–	–	–	–	0.528	0.493	0.492	0.573	0.596
NCI-H1648	–	–	–	–	–	–	–	–	–	–	0.275	0.216	0.229	0.309	0.233	–	–	–	–	–
NCI-H1650	0.182	0.185	0.2	0.168	0.174	0.154	0.172	0.167	0.157	0.183	0.121	0.187	0.126	0.16	0.194	–	–	–	–	–
NCI-H1703	–	–	–	–	–	–	–	–	–	–	–	–	–	–	–	0.0878	0.0975	0.132	0.112	0.122
NCI-H1792	0.23	0.187	0.176	0.169	0.157	0.483	0.294	0.256	0.271	0.196	–	–	–	–	–	0.457	0.373	0.153	0.114	0.085
NCI-H2342	0.261	0.279	0.23	0.245	0.238	0.297	0.283	0.258	0.249	0.284	0.229	0.264	0.263	0.219	0.247	–	–	–	–	–
SW 900	0.162	0.144	0.106	0.124	0.184	0.129	0.134	0.112	0.0964	0.248	0.155	0.107	0.0961	0.14	0.178	–	–	–	–	–

Reference: the supplement of paper PMC10307832
